In patent publication US12377095B2, “Use of ligustrazine nitrone derivatives in treatment and prevention of diabetic complication diseases” (QINGDAO HAILAN PHARMACEUTICALS CO., LTD., priority 2019, dated 2025):

Tests used:
[1] = system: db/db mice; assay: Urinary albumin/creatinine ratio in db/db mice, TBN alone and in combination; format: in vivo, mouse; details: TBN 30 mg/kg, Losartan 10 mg/kg, TBN+Losartan (FIG. 17)
Procedure: Grouping and dosing are the same as in Example 9. At the end of the experiment, 24 h urine samples were collected, antiseptic treatment was performed to all urine specimens with toluene, 24 h urine was centrifuged to remove precipitation and placed in a 1.5 mLEP tube and then placed in a refrigerator at −20° C. for later use, urinary albumin content was measured with ELISA kits, urine creatinine levels were detected by use of an automatic biochemical analyzer, and the ratio of both was calculated. The results as shown in FIG. 19 indicate that the ratio of urinary microalbumin to creatinine in DB/DB group was higher than that in wt/wt group, and the db/db mice 24 h urinary albumin creatinine ratio decreased in TBN group, losartan group and TBN-losartan combination group. Referring to this method, metformin (150 mg/kg, qd), and HIF-PH inhibitor roxadustat (10 mg/kg, once 2 every days) were given via oral administration, the combination groups of TBN with respectively metformin and roxadustat also reduce 24 h urinary albumin creatinine ratio.

[2] = system: EPO mRNA; assay: EPO mRNA by RT-PCR in CoCl2-induced HepG2 cell hypoxia model; details: 30 μM, 24 h, HepG2 cells, 50 μM CoCl2
[3] = system: diabetic neuropathy model rats; assay: Thermal radiation stimulation in diabetic neuropathy model rats; format: in vivo, rat; details: TBN 30 mg/kg twice a day, 4 weeks of administration (8 weeks after STZ), P<0.05
Procedure: Modeling method: STZ was weighed and transferred to a centrifuge tube, wrapped with aluminum foil, kept away from light, and stored at −20° C. STZ sodium citrate solution is prepared when it is in need to use. The rats were fasted without water for 12 hours before injection. After weighing, the rats were injected with 55 mg/kg STZ intraperitoneally (STZ needs to be injected quickly, and the injection was completed within 10 minutes), and then returned to the cage to ensure that the rats had sufficient drinking water for 24 hours. Rats were injected with an equal volume of citrate buffer (pH 4.5). Four weeks after STZ injection, blood was collected from the tail vein, and the rats with blood glucose less than 16.7 mmol/L were eliminated; the taillick threshold temperature was increased, and the mechanical withdrawal threshold (MWT) was decreased, as the standard of a successful DPN model.
The animals were randomly divided into 3 groups (n=7), namely the normal control group, the model group, and the TBN (30 mg/kg) group. The normal group and the model group were injected with an equal volume of normal saline, and TBN was administered twice a day (fixed at 9:00-10:00 am and 3:00-4:00 pm), continuously for 4 weeks. […]

[4] = system: spontaneous diabetic model in rhesus monkeys; assay: Spontaneous diabetic model in rhesus monkeys, serum EPO and iron; format: in vivo

In the case of Cc1nc(C)c(/C=[N+](\[O-])C(C)(C)C)nc1C [TBN], the “24 h urinary albumin creatinine ratio” value [1] was “decreased”, the “expression of EPO mRNA” value [2] was “significantly increase” and the “pain threshold of heat stimulation (hindlimb lifting latency) vs model group” value [3] was “increase”. The “serum EPO content” value [4] was “increase” and the serum iron content [4] was “increase”.
